Drawing on US8729089B2 (Gilead Sciences, Inc., priority 2006, dated 2014), this text covers CC50 and EC50 for 13 compounds.

The CC50 is the concentration giving 50% cytotoxicity. In general, pEC50 refers to −log10 of the EC50, conventionally taken in molar units.

One data set has as its system Huh-7 HCV replicon cells. Kind of data set: CC50 assay (CellTiter-Glo) in Huh-7 HCV replicon cells. The format is cell-based, human. Particulars: 3 days incubation, CellTiter-Glo readout. Put shortly:
(§1)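 Cytotoxicity (CC50) measured by CellTiter-Glo and antiviral activity (EC50) by luciferase signal from lysed cells, both by luminescence. Replicon-bearing Huh-7 cells, 6000 per well, incubated 3 days at 37 °C with threefold-diluted compound (0.5% DMSO for DMSO-dissolved compounds).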
For orientation: Cellular ATP, detected with luciferase, serves as a proxy for viable cell number.

In data set [1] the test system is HCV replicon in human hepatoma Huh-7 cell line. Briefly: Anti-HCV replicon assay (EC50, luciferase). The class given is cell-based. Put shortly: as §1
Data set [2] is described as follows: CC50 assay (CellTiter-Glo) in Huh-7 HCV replicon cells. The conditions noted are these: human, 3 days incubation, CellTiter-Glo readout. The format is cell-based, human. Put shortly: as §1
Where [3] appears, read: Huh-7 HCV replicon cells, 3 days incubation, luciferase readout.

pEC50: −log10 of the molar value.

In the data set on Huh-7 HCV replicon cells, `CC(Nc1nc(NCC(F)(F)F)c2nc(-c3ccc(F)cc3)ccc2n1)c1ccc(S(N)(=O)=O)cc1` (centres unmarked) [Example 250, 4-{1-[6-(4-Fluoro-phenyl)-4-(2,2,2-trifluoro-ethylamino)-pyrido[3,2-d]pyrimidin-2-ylamino]-ethyl}-benzenesulfonamide] registered a CC50 of less than 5 µM. In addition, in data set [1] (setting [3]), the pEC50 was more than 7.00.

For `CC(Nc1nc(NCC(F)(F)F)c2nc(-c3ccc(F)cc3)ccc2n1)c1ccc(S(N)(=O)=O)cc1` (centres unmarked) [Example 257, 4-{1-[6-(4-Fluoro-phenyl)-4-(2,2,2-trifluoro-ethylamino)-pyrido[3,2-d]pyrimidin-2-ylamino]-ethyl}-benzenesulfonamide], in the data set on Huh-7 HCV replicon cells, the CC50 lay within 5 to 25 µM. For the same compound, the pEC50 in data set [1] (setting [3]) is more than 7.00.

The compound `CCOc1nc(NCc2c(F)cc(F)cc2F)nc2ccc(-c3ccc(F)cc3)nc12` [Example 39, (4-Ethoxy-6-(4-fluoro-phenyl)-pyrido[3,2-d]pyrimidin-2-yl]-(2,4,6-trifluoro-benzyl)-amine] yielded a CC50 at 3 days in data set [2] of 5 to 25 µM. This compound also showed a pEC50 in data set [1] (Hepatitis C virus, Huh-7, 72 h) of more than 7.00.

`CC(C)N1CCC(Nc2nc(NCc3ccc(F)cc3)nc3ccc(-c4ccc(F)cc4)nc23)CC1` [Example 29, N2-(4-Fluoro-benzyl)-6-(4-fluoro-phenyl)-N4-(1-isopropyl-piperidin-4-yl)-pyrido[3,2-d]pyrimidine-2,4-diamine] had a CC50 at 3 days in data set [2] of less than 5 µM. The same compound showed a pEC50 in data set [1] (Hepatitis C virus, Huh-7, 72 h) of more than 7.00.

Consider `CCOc1nc(NCc2ccc(F)cc2)nc2ccc(-c3ccc(C(=O)NCCN(C)C)cc3)nc12` [Example 63, N-(2-Dimethylamino-ethyl)-4-[4-ethoxy-2-(4-fluoro-benzylamino)-pyrido[3,2-d]pyrimidin-6-yl]-benzamide], for which the CC50 at 3 days in data set [2] was less than 5 µM. Moreover, the pEC50 in data set [1] (Hepatitis C virus, Huh-7, 72 h) was more than 7.00.

As for `CCOc1nc(NCc2ccc(F)cc2)nc2ccc(-c3ccc(NC(=O)NCCN4CCCC4)cc3)nc12` [Example 93, 1-{4-[4-Ethoxy-2-(4-fluoro-benzylamino)-pyrido[3,2-d]pyrimidin-6-yl]-phenyl}-3-(2-pyrrolidin-1-yl-ethyl)-urea], in data set [2], the CC50 at 3 days is less than 5 µM. In data set [1] (Hepatitis C virus, Huh-7, 72 h), this compound had a pEC50 of more than 7.00.

For the compound `CCOc1nc(NCc2ccc(F)cc2)nc2ccc(-c3ccc(NC(=O)C4CC4)cc3)nc12` [Example 67, Cyclopropanecarboxylic acid {4-[4-ethoxy-2-(4-fluoro-benzylamino)-pyrido[3,2-d]pyrimidin-6-yl]-phenyl}-amide], the CC50 at 3 days in data set [2] is 5 to 25 µM. In data set [1] (Hepatitis C virus, Huh-7, 72 h), the pEC50 was more than 7.00.

`NS(=O)(=O)c1ccc(CNc2nc(NCC(F)(F)F)c3nc(-c4ccc(F)c(NS(=O)(=O)C5CC5)c4)ccc3n2)cc1` [Example 231, 4-{[6-(3-Cyclopropanesulfonylamino-4-fluoro-phenyl)-4-(2,2,2-trifluoro-ethylamino)-pyrido[3,2-d]pyrimidin-2-ylamino]-methyl}-benzenesulfonamide]: the CC50 at 3 days in data set [2] was more than 25 µM. Besides, in data set [1] (Hepatitis C virus, Huh-7, 72 h), the pEC50 is more than 7.00.

For `CCOc1nc(NCc2ccc(F)cc2F)nc2ccc(-c3ccc(F)cc3)nc12` [Example 108, (2,4-Difluoro-benzyl)-{4-ethoxy-6-(4-fluoro-phenyl)-pyrido[3,2-d]pyrimidin-2-yl]-amine], the CC50 at 3 days in data set [2] lay within 5 to 25 µM. In data set [1] (Hepatitis C virus, Huh-7, 72 h), the pEC50 was more than 7.00.

As to `CCOc1nc(NCc2ccc(S(N)(=O)=O)cc2)nc2ccc(-c3ccc(NC(=O)[C@H]4CCNC4)cc3)nc12` [Example 121, (S)-4-{[4-Ethoxy-6-(4-(pyrrolidine-3-carboxamido)-phenyl)-pyrido[3,2-d]pyrimidin-2-ylamino]-methyl}-benzenesulfonamide], the CC50 at 3 days in data set [2] was more than 25 µM. In data set [1] (Hepatitis C virus, Huh-7, 72 h), this compound gave a pEC50 of more than 7.00.

`COc1cc(-c2ccc3nc(NCc4ccc(S(N)(=O)=O)cc4)nc(NCC(F)(F)F)c3n2)ccn1` [Example 172, 4-{[6-(2-Methoxy-pyridin-4-yl)-4-(2,2,2-trifluoro-ethylamino)-pyrido[3,2-d]pyrimidin-2-ylamino]-methyl}-benzenesulfonamide] displayed a CC50 at 3 days in data set [2] of 5 to 25 µM. Moreover, the pEC50 in data set [1] (Hepatitis C virus, Huh-7, 72 h) is more than 7.00.

Take `NS(=O)(=O)c1ccc(CNc2nc(NCC(F)(F)F)c3nc(-c4ccc(F)c(Cl)c4)ccc3n2)cc1` [Example 233, 4-{[6-(3-Chloro-4-fluoro-phenyl)-4-(2,2,2-trifluoro-ethylamino)-pyrido[3,2-d]pyrimidin-2-ylamino]-methyl}-benzenesulfonamide]: the CC50 at 3 days in data set [2] lay in the range of 5 to 25 µM. In data set [1] (Hepatitis C virus, Huh-7, 72 h), this compound gave a pEC50 of more than 7.00.

Compound `CC(C)(C)OC(=O)N1CCC(NS(=O)(=O)c2cc(-c3ccc4nc(NCc5ccc(S(N)(=O)=O)cc5)nc(NCC(F)(F)F)c4n3)ccc2F)CC1` [Example 215, 4-{2-Fluoro-5-[2-(4-sulfamoyl-benzylamino)-4-(2,2,2-trifluoro-ethylamino)-pyrido[3,2-d]pyrimidin-6-yl]-benzenesulfonylamino}-piperidine-1-carboxylic acid tert-butyl ester] registered a CC50 at 3 days in data set [2] of 5 to 25 µM. Moreover, in data set [1] (Hepatitis C virus, Huh-7, 72 h), the pEC50 is more than 7.00.
